The results in this text go back to patent US20160108049A1 (TAKEDA Gmbh, priority 2011, published 2016).

One test addresses T1, PDE4B1 (Homo sapiens, UniProt Q07343).
T1 construct: made in house; host or cells: SF21 insect cells (baculovirus; virus made in SF9 cells, pCR-Bac vector)
Kind of test: Inhibition of PDE4 activity (PDE4B1, SPA assay). The format is biochemical. As to conditions: recombinant PDE4B1, 0.5 μM cAMP; read-out: PDE4B1 Inhibitory values measured as -logIC50 (converted). The essentials: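 Read-out is SPA yttrium silicate bead scintillation after IBMX-containing beads stop the reaction. Insect-cell (SF21) lysate enzyme hydrolysed 0.5 μM [3H]cAMP at pH 7.4 with 5 mM Mg2+ for 15 min after a 5 min 37 °C preincubation; IC50 fitted by non-linear regression.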

Another test addresses T2, human PDE5 (Homo sapiens, UniProt O76074).
T2 construct: from tissue; host or cells: human platelets from fresh donor blood (platelet lysate)
Kind of test: Inhibition of PDE5 activity (platelet lysate, SPA assay). As to conditions: 0.5 μM cGMP, read-out: PDE5 Inhibitory values measured as -logIC50 (converted). Format: biochemical. In a few lines:
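SPA readout of [3H]cGMP hydrolysis (0.5 μM, 15 min, 37 °C after 5 min preincubation), stopped with yttrium silicate beads containing IBMX. Enzyme was lysate from human platelets, used at 10–20% substrate turnover, with PDE3 (motapizone 1 μM) and PDE2 (10 nM) blockers present. IC50 values fitted non-linearly from concentration-effect curves.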

T1 sequence (Q07343 whole entry): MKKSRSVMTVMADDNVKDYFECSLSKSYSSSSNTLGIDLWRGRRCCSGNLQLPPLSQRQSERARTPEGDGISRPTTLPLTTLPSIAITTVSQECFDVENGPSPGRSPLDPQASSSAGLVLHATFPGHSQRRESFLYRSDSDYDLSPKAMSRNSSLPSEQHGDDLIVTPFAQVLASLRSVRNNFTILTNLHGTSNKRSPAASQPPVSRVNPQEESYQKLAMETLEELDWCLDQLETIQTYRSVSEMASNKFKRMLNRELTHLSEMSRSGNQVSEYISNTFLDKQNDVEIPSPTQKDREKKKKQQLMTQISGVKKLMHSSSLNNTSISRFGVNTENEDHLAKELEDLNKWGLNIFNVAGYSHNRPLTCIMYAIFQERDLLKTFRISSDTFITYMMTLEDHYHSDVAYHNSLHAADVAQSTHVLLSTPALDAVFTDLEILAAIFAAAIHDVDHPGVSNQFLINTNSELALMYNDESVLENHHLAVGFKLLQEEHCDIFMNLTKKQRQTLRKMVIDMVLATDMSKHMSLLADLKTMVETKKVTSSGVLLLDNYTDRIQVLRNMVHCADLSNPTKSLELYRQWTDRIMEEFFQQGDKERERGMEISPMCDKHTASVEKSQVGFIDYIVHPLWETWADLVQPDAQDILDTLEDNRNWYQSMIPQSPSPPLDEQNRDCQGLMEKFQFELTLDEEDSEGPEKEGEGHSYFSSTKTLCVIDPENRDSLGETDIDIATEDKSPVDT

As for `COc1ccc(C2=NN(C3CCN(C(=O)C[C@@H](Cc4ccccc4)NC(=O)c4c[nH]c5c(-c6c(OCC7CC7)ccc7c6OCO7)ncnc45)CC3)C(=O)C(C)(C)C2)cc1OC` [Example 78, 4-[5-(cyclopropylmethoxy)-1,3-benzodioxol-4-yl]-N-[(2R)-4-{4-[3-(3,4-dimethoxyphenyl)-5,5-dimethyl-6-oxo-5,6-dihydropyridazin-1(4H)-yl]piperidin-1-yl}-4-oxo-1-phenylbutan-2-yl]-5H-pyrrolo[3,2-d]pyrimidine-7-carboxamide], the IC50 at PDE4B1 and at human PDE5 was 1 to 10 nM throughout.
On to `COc1ccc(C2=NN(C3CCN(C(=O)[C@H](CC4CCCCC4)NC(=O)c4c[nH]c5c(-c6c(OCC7CC7)ccc7c6OCO7)ncnc45)CC3)C(=O)C(C)(C)C2)cc1OC` [Example 94, N-[(2S)-3-cyclohexyl-1-{4-[3-(3,4-dimethoxyphenyl)-5,5-dimethyl-6-oxo-5,6-dihydropyridazin-1(4H)-yl]piperidin-1-yl}-1-oxopropan-2-yl]-4-[5-(cyclopropylmethoxy)-1,3-benzodioxol-4-yl]-5H-pyrrolo[3,2-d]pyrimidine-7-carboxamide], for which the IC50 on PDE4B1 is 1 to 10 nM; on human PDE5 it was below 1 nM.
For `COc1ccc(C[C@@H](NC(=O)c2c[nH]c3c(-c4c(OCC5CC5)ccc5c4OCO5)ncnc23)C(=O)N2CCC(N3N=C(c4ccc(OC)c(OC)c4)[C@H]4CCCC[C@H]4C3=O)CC2)cc1` [Example 29, 4-[5-(cyclopropylmethoxy)-1,3-benzodioxol-4-yl]-N-[(2R)-1-{4-[(4aS,8aR)-4-(3,4-dimethoxyphenyl)-1-oxo-4a,5,6,7,8,8a-hexahydrophthalazin-2(1H)-yl]piperidin-1-yl}-3-(4-methoxyphenyl)-1-oxopropan-2-yl]-5H-pyrrolo[3,2-d]pyrimidine-7-carboxamide], the figures for the IC50 at PDE4B1 and at human PDE5 were 1 to 10 nM and below 1 nM, respectively.
For `COc1ccc(C2=NN(C3CCN(C(=O)[C@@H](Cc4ccc(Cl)cc4Cl)NC(=O)c4c[nH]c5c(-c6c(OCC7CC7)ccc7c6OCO7)ncnc45)CC3)C(=O)[C@@H]3CCCC[C@H]23)cc1OC` [Example 48, 4-[5-(cyclopropylmethoxy)-1,3-benzodioxol-4-yl]-N-[(2R)-3-(2,4-dichlorophenyl)-1-{4-[(4aS,8aR)-4-(3,4-dimethoxyphenyl)-1-oxo-4a,5,6,7,8,8a-hexahydrophthalazin-2(1H)-yl]piperidin-1-yl}-1-oxopropan-2-yl]-5H-pyrrolo[3,2-d]pyrimidine-7-carboxamide], in that order: below 1 nM and below 1 nM.
With `COc1ccc(C2=NN(C3CCN(C(=O)[C@H](Cc4ccncc4)NC(=O)c4c[nH]c5c(-c6c(OCC7CC7)ccc7c6OCO7)ncnc45)CC3)C(=O)[C@@H]3CCCC[C@H]23)cc1OC` [Example 41, 4-[5-(cyclopropylmethoxy)-1,3-benzodioxol-4-yl]-N-[(2S)-1-{4-[(4aS,8aR)-4-(3,4-dimethoxyphenyl)-1-oxo-4a,5,6,7,8,8a-hexahydrophthalazin-2(1H)-yl]piperidin-1-yl}-1-oxo-3-(pyridin-4-yl)propan-2-yl]-5H-pyrrolo[3,2-d]pyrimidine-7-carboxamide], the IC50 at PDE4B1 and on human PDE5 was below 1 nM in each case.
Turning to `COc1ccc(C2=NN(C3CCN(C(=O)[C@@H](Cc4ccc(C(N)=O)cc4)NC(=O)c4c[nH]c5c(-c6c(OCC7CC7)ccc7c6OCO7)ncnc45)CC3)C(=O)[C@@H]3CCCC[C@H]23)cc1OC` [Example 7, N-[(2R)-3-(4-carbamoylphenyl)-1-{4-[(4aS,8aR)-4-(3,4-dimethoxyphenyl)-1-oxo-4a,5,6,7,8,8a-hexahydrophthalazin-2(1H)-yl]piperidin-1-yl}-1-oxopropan-2-yl]-4-[5-(cyclopropylmethoxy)-1,3-benzodioxol-4-yl]-5H-pyrrolo[3,2-d]pyrimidine-7-carboxamide], the IC50 on PDE4B1 was 1 to 10 nM; at human PDE5, below 1 nM.
In the case of `COc1ccc(C2=NN(C3CCN(C(=O)[C@@H](Cc4ccc(O)cc4)NC(=O)c4c[nH]c5c(-c6c(OCC7CC7)ccc7c6OCO7)ncnc45)CC3)C(=O)[C@@H]3CCCC[C@H]23)cc1OC` [Example 52, 4-[5-(cyclopropylmethoxy)-1,3-benzodioxol-4-yl]-N-[(2R)-1-{4-[(4aS,8aR)-4-(3,4-dimethoxyphenyl)-1-oxo-4a,5,6,7,8,8a-hexahydrophthalazin-2(1H)-yl]piperidin-1-yl}-3-(4-hydroxyphenyl)-1-oxopropan-2-yl]-5H-pyrrolo[3,2-d]pyrimidine-7-carboxamide], the IC50 at PDE4B1 and at human PDE5 was below 1 nM throughout.
Take `COc1ccc(C2=NN(C3CCN(C(=O)[C@H](Cn4cccn4)NC(=O)c4c[nH]c5c(-c6c(OCC7CC7)ccc7c6OCO7)ncnc45)CC3)C(=O)[C@@H]3CCCC[C@H]23)cc1OC` [Example 88, 4-[5-(cyclopropylmethoxy)-1,3-benzodioxol-4-yl]-N-[(2S)-1-{4-[(4aS,8aR)-4-(3,4-dimethoxyphenyl)-1-oxo-4a,5,6,7,8,8a-hexahydrophthalazin-2(1H)-yl]piperidin-1-yl}-1-oxo-3-(1H-pyrazol-1-yl)propan-2-yl]-5H-pyrrolo[3,2-d]pyrimidine-7-carboxamide]: the IC50 at PDE4B1 and on human PDE5 was 1 to 10 nM throughout.
On to `COc1ccc(C2=NN(C3CCN(C(=O)[C@@H](CCC(=O)NC(C)C)NC(=O)c4c[nH]c5c(-c6c(OCC7CC7)ccc7c6OCO7)ncnc45)CC3)C(=O)[C@@H]3CCCC[C@H]23)cc1OC` [Example 107, 4-[5-(cyclopropylmethoxy)-1,3-benzodioxol-4-yl]-N-[(2R)-1-{4-[(4aS,8aR)-4-(3,4-dimethoxyphenyl)-1-oxo-4a,5,6,7,8,8a-hexahydrophthalazin-2(1H)-yl]piperidin-1-yl}-1,5-dioxo-5-(propan-2-ylamino)pentan-2-yl]-5H-pyrrolo[3,2-d]pyrimidine-7-carboxamide], for which the IC50 at PDE4B1 and at human PDE5 was 1 to 10 nM throughout.
In the case of `COc1ccc(C2=NN(C3CCN(C(=O)[C@H](CO)NC(=O)c4c[nH]c5c(-c6c(OCC7CC7)ccc7c6OCO7)ncnc45)CC3)C(=O)[C@@H]3CCCC[C@H]23)cc1OC` [Example 60, 4-[5-(cyclopropylmethoxy)-1,3-benzodioxol-4-yl]-N-[(2S)-1-{4-[(4aS,8aR)-4-(3,4-dimethoxyphenyl)-1-oxo-4a,5,6,7,8,8a-hexahydrophthalazin-2(1H)-yl]piperidin-1-yl}-3-hydroxy-1-oxopropan-2-yl]-5H-pyrrolo[3,2-d]pyrimidine-7-carboxamide], the IC50 on PDE4B1 is below 1 nM; on human PDE5 it was 1 to 10 nM.
On to `COc1ccc(C2=NN(C3CCN(C(=O)[C@@H](Cc4ccc(C#N)cc4)NC(=O)c4c(C)[nH]c5c(-c6c(OCC7CC7)ccc7c6OCO7)ncnc45)CC3)C(=O)[C@@H]3CCCC[C@H]23)cc1OC` [Example 14, N-[(2R)-3-(4-cyanophenyl)-1-{4-[(4aS,8aR)-4-(3,4-dimethoxyphenyl)-1-oxo-4a,5,6,7,8,8a-hexahydrophthalazin-2(1H)-yl]piperidin-1-yl}-1-oxopropan-2-yl]-4-[5-(cyclopropylmethoxy)-1,3-benzodioxol-4-yl]-6-methyl-5H-pyrrolo[3,2-d]pyrimidine-7-carboxamide], for which the IC50 on PDE4B1 was 1 to 10 nM; at human PDE5 it was above 10 nM.
